Legend:
[1] = Body weight after CCI injury; assay type: in vivo, rat; conditions: CCI-injured rats, 30 mg kg^-1 i.p.; P=0.8
Protocol: A previously described CCI injury procedure was utilized (Chen et al., 2003). Male Sprague-Dawley rats, which have body weight of 250-300 g, were anaesthetized with sodium pentobarbital (i.p.; 50 mgkg^−1; Rhone Merieux, Harlow, UK) and placed in a stereotaxic frame. A 5-mm craniotomy was performed over the left parietal cortex, centered on the coronal suture and 3 mm lateral to the sagittal suture. Considerable care was taken to avoid injury to the underlying dura. Injury was made using a pneumatic piston with a rounded metal tip (2.5 mm diameter) that was angled 22.5° C. to the vertical so that the tip was perpendicular with the brain surface at the centre of the craniotomy. A velocity of 4 ms^−1 and a deformation depth 2 mm below the dura were used. The bone flap was immediately replaced and sealed, and the scalp was closed with sutures. Body temperature was monitored throughout the surgery by a rectal probe; temperature was maintained at 37.0±0.5° C. using a heated pad. Rats were placed in a heated cage to maintain body temperature, while recovering from anaesthesia.
Baicalein (30 mg kg^−1) dissolved in 10% dimethyl sulphoxide (0.25-0.3 mL) or a corresponding volume of vehicle (10% dimethyl sulphoxide) was administered i.p. immediately following injury or daily for 4 days (immediately, 25, 49 and 73 h) after injury. […]

[2] = system: rats with controlled cortical impact (CCI) injury; assay: Cortical contusion volume, cresyl violet staining; assay type: in vivo, rat
Protocol: A previously described CCI injury procedure was utilized (Chen et al., 2003). Male Sprague-Dawley rats, which have body weight of 250-300 g, were anaesthetized with sodium pentobarbital (i.p.; 50 mgkg^−1; Rhone Merieux, Harlow, UK) and placed in a stereotaxic frame. A 5-mm craniotomy was performed over the left parietal cortex, centered on the coronal suture and 3 mm lateral to the sagittal suture. Considerable care was taken to avoid injury to the underlying dura. Injury was made using a pneumatic piston with a rounded metal tip (2.5 mm diameter) that was angled 22.5° C. to the vertical so that the tip was perpendicular with the brain surface at the centre of the craniotomy. A velocity of 4 ms^−1 and a deformation depth 2 mm below the dura were used. The bone flap was immediately replaced and sealed, and the scalp was closed with sutures. Body temperature was monitored throughout the surgery by a rectal probe; temperature was maintained at 37.0±0.5° C. using a heated pad. Rats were placed in a heated cage to maintain body temperature, while recovering from anaesthesia. Baicalein (30 mg kg^−1) dissolved in 10% dimethyl sulphoxide (0.25-0.3 mL) or a corresponding volume of vehicle (10% dimethyl sulphoxide) was administered i.p. immediately following injury or daily for 4 days (immediately, 25, 49 and 73 h) after injury. Behaviour testing using the rotarod, tactile adhesive removal, mNSS and beam walk tests was performed at 28 hours as well as 4, 7, 14, 21 and 28 days post-injury. At 14 and 28 days, the animals were killed, perfused intravascularly and their brains were processed with cresyl violet staining to assess contusion volume (n=8 for each group). […] Following with terminal anaesthesia, rats were killed by transcardial perfusion first with phosphate-buffered saline (PBS) and then with 4% paraformaldehyde and their tissues were processed on day 1 (for FJB staining and cytokine immunohistochemistry), day 14 (for cresyl violet histology) and day 28 (for cresyl violet histology), post-injury. All solutions were maintained at pH 7.4 and 4° C. Brains were removed and post-fixed in 4% paraformaldehyde overnight and transferred to PBS containing 30% sucrose and 0.1% sodium azide, manufactured by Sigma Chemical Co. located at St Louis, Mo., USA, for cryoprotection. Coronal sections were cut in a cryostat at […] from the level of the olfactory bulbs to the visual cortex. Every 50th slice was used for cresyl violet histology, FJB staining or immunohistochemistry. The distance between similarly stained sections within each group was thus […], with approximately 20 sections per group. […] To measure contusion volumes, cresyl violet-stained sections were digitized and analyzed using a ×1.5 objective and computer image analysis system (Scion Image, Beta Release 4.0.2; Scion Corp., Frederick, Md., USA). […] Contusion area was calculated from all images of cresyl violet-stained sections that contained contused brain; volume measurement was computed by summation of areas multiplied by interslice distance (500 μm).

With `O=c1cc(-c2ccccc2)oc2cc(O)c(O)c(O)c12` [baicalein] the “body weight, baicalein versus vehicle” value [1] was “no significant difference”, the “contusion volume, single-dose versus multiple-dose groups” value ([2]; 30 mg kg^-1 i.p., days 14 and 28, P>0.05) was “no significant difference” and the “reduction of contusion volume versus vehicle” value (shortened to “reduction”) ([2]; multiple doses 30 mg kg^-1 i.p. daily for 4 days, 14 days post-injury) was 42%. The “reduction” value ([2]; multiple doses 30 mg kg^-1 i.p. daily for 4 days, 28 days post-injury) was 42%, the “reduction” value ([2]; single dose 30 mg kg^-1 i.p., 14 days post-injury) was 32% and the “reduction” value ([2]; single dose 30 mg kg^-1 i.p., 28 days post-injury) was 34%.

From US20100222421A1, “Usage of Baicalein in the Preparation of a Pharmaceutical Composition for the Treatment of Traumatic Brain Injury” (National Defense Medical Center, priority 2009, published 2010)
